From patent US20090280982A1, “Quinolinylmethyl Compounds” (BASF SE, priority 2006, published 2009)

Assays:
[1] = system: Green Peach Aphid (Myzus persicae); conditions: in vivo
From the text: II.2 Activity Against Green Peach Aphid (Myzus persicae)
The active compounds were formulated in 50:50 acetone:water and 100 ppm Kinetic™ surfactant.
Pepper plants in the 2nd leaf-pair stage (variety California Wonder) were infested with approximately 40 laboratory-reared aphids by placing infested leaf sections on top of the test plants. The leaf sections were removed after 24 hr. The leaves of the intact plants were dipped into gradient solutions of the test compound and allowed to dry. Test plants were maintained under fluorescent light (24 hour photoperiod) at about 25° C. and 20-40% relative humidity. Aphid mortality on the treated plants, relative to mortality on check plants, was determined after 5 days.

[2] = system: Rice Green Leaf Hoppers (Nephotettix virescens); assay: Activity against rice green leaf hoppers (II.20); type: in vivo; conditions: at 300 ppm; after 72 hours; rice foliar spray
Protocol: II.20 Activity Against Rice Green Leaf Hoppers (Nephotettix virescens)
(§1) Leaf hopper adults used for bioassay are obtained from a colony maintained continuously under laboratory conditions. For testing purposes, the test compound is diluted in 300 ppm (wt compound:vol diluent) in a 1:1 mixture of acetone:water, plus 0.1% EL 620 surfactant.
Hopper activity is evaluated using the foliar spray technique. Potted rice plants (2-3 week old, Variety TN-1) are cleaned and dried prior to application. All plants are treated inside the fume hood using DeVilbiss atomizer at 25 psi with a spray volume of 5 ml/plant. To ensure uniform spray distribution, plants were placed in a rotating flat form inside the fume hood. Treated plants are then placed inside the holding room and allowed to dry for 2 hours. Each plant are caged using Mylar cages (4 inches diameter×19 inches in height) and inoculated with 10 adults hoppers. All test plants are held under continuous light and a temperature of about 28° C. for duration of the assay. Percent mortality is observed after 72 hours.

[3] = system: Flea Beetle (Phylotretta striolata); assay: Activity against flea beetle (II.19); type: in vivo; conditions: at 300 ppm; after 3 days; leaf disc dip
Protocol: II.19 Activity Against Flea Beetle (Phylotretta striolata)
as §1, with “Flea bettle (Phylotretta striolata) adults” for “Leaf hopper adults”, “diluted to a concentration of” for “diluted in”, “(wt compound: vol” for “(wt compound:vol”
Activity of each compound is evaluated using a […]. Glass petri dishes (60×15 mm) lined with moist filter paper serves as test arenas. All leaf discs are dipped into treatment solution for approximately 3 seconds and allowed to dry for 2 hours. Each treated leaf disc is placed into individual petri dishes and inoculated with 10 adult beetles. Petri dishes are then covered with lids. All test arenas are held under continuous light and a temperature of about 28° C. for duration of the assay. After 3 days, percent mortality is observed.

[4] = system: Diamond Back Moth (plutella xylostella); conditions: in vivo
Protocol: II.5 Activity Against Diamond Back Moth (plutella xylostella)
The active compounds were formulated in 50:50 acetone:water and 0.1% (vol/vol) Alkamuls EL 620 surfactant. A 6 cm leaf disk of cabbage leaves was dipped in the test solution for 3 seconds and allowed to air dry in a Petri plate lined with moist filter paper. The leaf disk was inoculated with 10 third instar larvae and kept at 25-27° C. and 50-60% humidity for 3 days. Mortality was assessed after 72 h of treatment.

[5] = system: Brown Planthopper (nilaparvata lugens); assay: Activity against brown planthopper (II.7); type: in vivo; conditions: for mortality [%] at 300 ppm: brown plant hopper (II.7)
Protocol: II.7 Activity Against Brown Planthopper (nilaparvata lugens)
The active compounds were formulated as a 20:80 acetone:water solution. Surfactant (Alkamuls EL 620) was added at the rate of 0.1% (vol/vol).
Potted rice plants of 3-4 weeks of age are sprayed with 10 ml of the test solution using air driven hand atomizer (Devillbis atomizer) at 1.7 bar. The treated plants are allowed to dry for about 1 hour and covered with Mylar cages. The plants are inoculated with 10 adults of the specie (5 male and 5 females) and kept at 25-27° C. and 50-60% humidity for 3 days. Mortality is assed after 24, 48 and 72 hours after treatment. Dead insects are usually found in the water surface. Each treatment is replicated once.

| SMILES | mortality [%] at 100 ppm [1] | mortality [%] at 300 ppm [1] | mortality in comparison with untreated controls [2] | mortality in comparison with untreated controls [3] | mortality [%] at 300 ppm [4] | mortality [%] at 10 ppm [1] | mortality [%] at 300 ppm [5] | mortality in comparison with untreated controls ([5]; at 300 ppm, rice plants sprayed, up to 72 hours) |
| --- | --- | --- | --- | --- | --- | --- | --- | --- |
| O=S(=O)(NCc1ccnc2ccccc12)c1ccc(-c2ccc(OC(F)(F)F)cc2)cc1 [Compound C1, reference compound] | 0% | 60% | – | – | – | – | – | – |
| O=S(=O)(NCc1ccnc2ccccc12)c1ccc(-c2ccc(C(F)(F)F)cc2Cl)cc1F [Compound B85] | – | – | at least 75% | at least 75% | – | – | – | – |
| O=S(=O)(NCc1ccnc2ccccc12)c1ccc(-c2ccc(C(F)(F)F)cc2)c(Cl)c1 [Compound B24] | 90% | 100% | – | – | 100% | 90% | – | – |
| O=S(=O)(NCc1ccnc2ccccc12)c1ccc(-c2ccc(OC(F)(F)F)cc2)c(F)c1 [Compound B14] | 90% | 90% | – | – | – | – | – | – |
| O=S(=O)(NCc1ccnc2ccccc12)c1ccc(-c2ccc(C(F)(F)F)cc2)cc1 [Compound C2, reference compound] | 60% | 100% | – | – | 0% | 0% | 0% | – |
| O=S(=O)(NCc1ccnc2ccccc12)c1ccc(-c2ccc(C(F)(F)F)cc2)c(C(F)(F)F)c1 [Compound B16] | – | – | – | – | – | – | 100% | at least 75% |
